How the values were obtained:
[1] = Experiment 2: conversion of ammonium carbamate into ammonium carbonate, precipitation in 85% of acetone; assay type: biochemical
erythrocytes = assay: Experiment 3: speed of lysis with carbonic anhydrases from different sources in lysis reagent according to Example 1; assay type: cell-based; details: Example 1 reagent, carbonic anhydrase replaced by preparation at 5000 W-A U/l; OD at 700 nm; time to minimum level
Procedure: In a lysis reagent according to Example 1, the component carbonic anhydrase at 50,000 W-A U/I was replaced by preparations of carbonic anhydrase as indicated in the table, each at 5000 W-A U/I. The lysis process was tracked spectrophotometrically (measurement of the OD at 700 nm). The duration of the lysis is determined by the time necessary to achieve a minimum level.

Molecule | Speed of lysis at 5000 W-A U/l (erythrocytes) | also measured
N.NC(=O)O [100 mM NH2CO2NH4, ammonium carbamate, reference compound] | – | Duration before complete precipitation in 85% of acetone ([1]; carbonate precipitates and not the carbamate): 240 min
CAII, C-2522: carbonic anhydrase II preparation, Sigma, bovine | 8.51 min | –
CAI, C-4396: carbonic anhydrase I preparation, Sigma, human | 5.06 min | –
carbonic anhydrase | – | catalysis of the conversion carbonate / carbamate+H2O (in words) [1]: also catalyses the conversion carbonate
CAI, C-5290: carbonic anhydrase I preparation, Sigma, human | 3.24 min | –

Reference: US7678583B2, “Method of lysis of erythrocytes” (Immunotech, S.A., priority 2000, dated 2010)
